{
  "source": "paper PMC11423540",
  "about": "“Synthesis and biological evaluation of ortho-phenyl phenylhydroxamic acids containing phenothiazine with improved selectivity for class IIa histone deacetylases” (Journal of Enzyme Inhibition and Medicinal Chemistry, 2024)",
  "key": {"SCC2095 cells [1]": {"tested_on": "SCC2095 cells", "experiment": "ROS determination by flow cytometry (DCFH-DA probe)", "type": "cell-based, human", "settings": "SCC2095, 12 h or 24 h", "description": "(§1) Cells (2 × 10^5) were treated with tested compounds in 6-well plates for 24 h or 48 h, then washed with ice-cold PBS twice and harvested with trypsin. Cells were incubated with 5 µL Annexin V- FITC/PI (BD Pharmingen, San Diego) for 15 min in the dark condition. Then, the cells were measured by BD FACSCanto flow cytometer (BD, Franklin Lakes, NJ). For ROS determination, DMSO or H2O2 or compound 7 g-treated cells were stained with the ROS probe (DCFH-DA; 5 µM) and detected the DCFH-DA fluorescence."}, "SCC2095 cells [2]": {"tested_on": "SCC2095 cells", "experiment": "Western blotting of caspase- and HDAC-related proteins", "type": "cell-based, human", "settings": "western blot", "description": "The protein expression was performed as previously described. Proteins were resolved on 10% SDS-PAGE, then transferred to PVDF (Bio-Rad) membranes. After blocking with 5% skimmed milk in PBS containing 0.1% Tween 20, the membranes were probed with primary antibodies against interest target proteins at 4 °C overnight. The following primary antibodies were used: […], cleaved caspase 9, acetyl α-tubulin, Hsp90, Histone H2A.X, p38, p-^180Thr/^182Tyr p38, PPARγ, and p21 were purchased from Cell Signalling Technologies (Beverly, MA, USA); pro-caspase 8, Millipore; β-actin, Sigma-Aldrich (St. Louis, MO, USA). Then, the immunoblots were washed and exposed to HRP-conjugated secondary antibodies at room temperature for 1 h. The immunoblots were examined by enhanced chemiluminescence."}, "HDAC4 protein": {"tested_on": "HDAC4 protein", "experiment": "Surface plasmon resonance binding to HDAC4", "settings": "Figure S1", "description": "HDAC4 protein was crosslinked by EDC (1-ethyl-3-(3-dimethylaminopropyl) carbodiimide) and NHS (N-hydroxysuccinimide). The crosslinking reagent and protein were co- incubated 30 minutes at 25°C.\nBinding reactivity to mutant HDAC4 protein was performed by SPR (OpenSPR, Nicoyalife). The recombinant HDAC4 protein was crosslinked by EDC/NHC regent, followed by dilution to a concentration of 50 μg/mL with PBS and immobilized onto a amine sensor chip (Nicoyalife). The analytes were tested at various dilutions in PBST, and the flow rate was maintained at 20 μL/min during analysis. The amine sensor chip was regenerated with 10 mM glycine−HCl, pH2.5. The results were analyzed using TraceDrawer software (Nicoyalife)."}, "HDAC7": {"molecular_target": "T1, HDAC7 (Homo sapiens, UniProt Q8WUI4)", "T1 sequence (Q8WUI4 1-952)": "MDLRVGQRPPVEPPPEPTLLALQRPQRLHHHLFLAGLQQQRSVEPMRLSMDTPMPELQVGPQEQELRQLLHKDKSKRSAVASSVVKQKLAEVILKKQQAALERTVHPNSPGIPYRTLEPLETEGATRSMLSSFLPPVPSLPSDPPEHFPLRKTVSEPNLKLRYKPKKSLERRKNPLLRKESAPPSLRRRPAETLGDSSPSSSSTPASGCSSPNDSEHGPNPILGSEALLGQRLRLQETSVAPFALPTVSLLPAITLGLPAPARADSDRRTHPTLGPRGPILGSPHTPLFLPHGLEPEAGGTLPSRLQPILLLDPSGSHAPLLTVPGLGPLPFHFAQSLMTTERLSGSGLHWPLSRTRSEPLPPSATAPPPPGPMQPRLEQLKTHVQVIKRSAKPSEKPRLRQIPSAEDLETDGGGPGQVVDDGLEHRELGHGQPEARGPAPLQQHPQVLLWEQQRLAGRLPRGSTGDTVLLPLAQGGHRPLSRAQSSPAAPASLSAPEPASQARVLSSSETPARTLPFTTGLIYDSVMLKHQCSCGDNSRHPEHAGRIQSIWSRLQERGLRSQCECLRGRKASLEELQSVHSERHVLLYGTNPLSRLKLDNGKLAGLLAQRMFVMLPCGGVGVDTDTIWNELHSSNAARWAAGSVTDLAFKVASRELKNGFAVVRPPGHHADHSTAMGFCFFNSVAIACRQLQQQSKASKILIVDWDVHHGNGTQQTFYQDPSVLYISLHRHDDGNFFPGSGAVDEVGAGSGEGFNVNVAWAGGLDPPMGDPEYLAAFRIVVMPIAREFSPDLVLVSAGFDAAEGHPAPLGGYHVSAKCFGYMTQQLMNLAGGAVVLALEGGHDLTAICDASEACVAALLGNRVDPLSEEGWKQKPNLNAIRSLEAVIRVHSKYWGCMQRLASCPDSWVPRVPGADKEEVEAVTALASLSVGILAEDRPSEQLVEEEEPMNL", "experiment": "HDAC inhibition assay, HDAC7"}, "SCM-1 cells": {"tested_on": "SCM-1 cells", "experiment": "Cell viability (MTT) assay, SCM-1", "type": "cell-based", "settings": "human gastric cancer cells, read-out: IC50 of cytotoxicity SCM-1", "source_text": "Human breast cancer MDA-MB-231 cells and gastric cancer SCM-1 cells were purchased from the American Type Culture Collection (Manasas, VA, USA). SCC2095 human oral cancer cells were kindly provided by Professor Susan R. Mallery (The Ohio State University). Normal human lung fibroblasts (NHLFs; CC-2512) were purchased from the Lonza (Walkersville, MD, USA). SCM-1 cells were maintained in RPMI-1640 medium (Invitrogen, Carlsbad, CA, USA); MDA-MB-231 and SCC2095 cells were maintained in DMEM/F12 (Invitrogen); and NHLFs were maintained in FGM™-2 medium (Lonza) with 2% serum, supplemented with 10% heat-inactivated foetal bovine serum (FBS; Gibco, Grand Island, NY, USA). All cells were cultured at 37 °C in a humidified incubator containing 5% CO2 and 95% relative humidity.\n(§2) To assess cell viability, cells were seeded in three replicates into 96-well plates at a density of 5×10^3/well for 24 h following incubation with compounds at the indicated concentrations. Then, cell viability was assessed with 3–(4,5-dimethylthiazol-2-yl)-2,5-diphenyltetrazolium bromide (MTT) solution (0.5 mg/mL) for 4h as described previously. After removing the medium, 200 µL of DMSO was added, and then the absorbance was measured at 570 nm using a plate reader (BMG LABTECH, Germany)."}, "SCC2095 cells [3]": {"tested_on": "SCC2095 cells", "experiment": "Cell viability (MTT) assay, SCC2095", "type": "cell-based", "settings": "Homo sapiens, 48 h, human oral cancer cells, read-out: IC50 of cytotoxicity SCC2095", "description": "Human breast cancer MDA-MB-231 cells and gastric cancer SCM-1 cells were purchased from the American Type Culture Collection (Manasas, VA, USA). SCC2095 human oral cancer cells were kindly provided by Professor Susan R. Mallery (The Ohio State University).\nas §2"}, "SCC2095 cells [4]": {"tested_on": "SCC2095 cells", "experiment": "Annexin V-FITC/PI flow cytometric apoptosis analysis", "type": "cell-based, human", "settings": "for apoptosis rate: 48 h", "description": "as §1"}},
  "data": [
    {"smiles": "NC(=NO)c1ccc2c(c1)N(Cc1ccc(C(=O)NO)c(-c3ccccc3)c1)c1ccccc1S2", "note": "[Compound 7g, N-Hydroxy-4-[2-(N’-hydroxycarbamimidoyl)-10H-phenothiazin-10-yl]methyl-2-phenylbenzamide]", "values": [
      {"measurement": "ROS generation", "setting": "SCC2095 cells [1]", "result": "increased"},
      {"measurement": "levels of Hsp90", "setting": "SCC2095 cells [2]; SCC2095, 24 h", "result": "increased"},
      {"measurement": "levels of PPARγ", "setting": "SCC2095 cells [2]; SCC2095, 24 h", "result": "increased"},
      {"measurement": "levels of cleaved caspase 9", "setting": "SCC2095 cells [2]; SCC2095, 24 h", "result": "up-regulated"},
      {"measurement": "levels of p21", "setting": "SCC2095 cells [2]; SCC2095, 24 h", "result": "increased"},
      {"measurement": "levels of pro-caspase 8", "setting": "SCC2095 cells [2]; SCC2095, 24 h", "result": "down-regulated"},
      {"measurement": "phosphorylation of Histone H2A.X", "setting": "SCC2095 cells [2]; SCC2095, DNA damage biomarker", "result": "increased"},
      {"measurement": "phosphorylation of p38", "setting": "SCC2095 cells [2]; SCC2095, dose-dependent", "result": "up-regulated"},
      {"measurement": "SPR binding to HDAC4 protein", "setting": "HDAC4 protein", "result": "can bind to HDAC4 protein"},
      {"measurement": "IC50", "setting": "HDAC7", "result": "190 ± 40", "unit": "nM"},
      {"measurement": "IC50", "setting": "SCM-1 cells", "result": "5800 ± 300", "unit": "nM"},
      {"measurement": "IC50", "setting": "SCC2095 cells [3]", "result": "3000 ± 300", "unit": "nM"},
      {"measurement": "apoptosis rate", "setting": "SCC2095 cells [4]; 1 µM", "result": 29.2, "unit": "%"},
      {"measurement": "apoptosis rate", "setting": "SCC2095 cells [4]; 2.5 µM", "result": 35.9, "unit": "%"},
      {"measurement": "apoptosis rate", "setting": "SCC2095 cells [4]; 5 µM", "result": 44.4, "unit": "%"},
      {"measurement": "apoptosis rate", "setting": "SCC2095 cells [4]; 7.5 µM", "result": 78.2, "unit": "%"},
      {"measurement": "percentage of apoptotic cells", "setting": "SCC2095 cells [4]; 10 µM, 24 h", "result": 83.6, "unit": "%"},
      {"measurement": "apoptosis rate", "setting": "SCC2095 cells [4]; 10 µM", "result": 87.1, "unit": "%"}
    ]}
  ]
}
